According to patent US20090186111A1, “Novel Bacteria and Pharmaceutically Active Products Obtained Therefrom” (priority 2004, published 2009):

tested on: S. aureus LSLT1111; test: Antibiogram of S. aureus LSLT1111

Q: How did the “Diameter of clear area” value turn out when `CC1(C)S[C@@H]2[C@H](NC(=O)[C@H](N)c3ccccc3)C(=O)N2[C@H]1C(=O)O` [Ampicillin] was run?
A: The value was 12.6 mm.

Q: And the Sensitivity to antibiotic?
A: The Sensitivity to antibiotic was “Resistant”.

Q: With `CC(=O)OCC1=C(C(=O)O)N2C(=O)[C@@H](NC(=O)Cc3cccs3)[C@H]2SC1` [Cephalothin] as the molecule, how does the “Diameter of clear area” value read?
A: Its value is 28.8 mm.

Q: And the Sensitivity to antibiotic?
A: The Sensitivity to antibiotic was “Sensitive”.

Q: For `O=C(N[C@H](CO)[C@H](O)c1ccc([N+](=O)[O-])cc1)C(Cl)Cl` [Chloramphenicol], which “Diameter of clear area” value is on record?
A: The value was 18.6 mm.

Q: And the Sensitivity to antibiotic?
A: Its Sensitivity to antibiotic is “Sensitive”.

Q: For `CC[C@H]1OC(=O)[C@H](C)[C@@H](O[C@H]2C[C@@](C)(OC)[C@@H](O)[C@H](C)O2)[C@H](C)[C@@H](O[C@@H]2O[C@H](C)C[C@H](N(C)C)[C@H]2O)[C@](C)(O)C[C@@H](C)C(=O)[C@H](C)[C@@H](O)[C@]1(C)O` [Erythromycin], which “Diameter of clear area” value is on record?
A: Its value is 17.3 mm.

Q: What about the Sensitivity to antibiotic of the same molecule?
A: Its Sensitivity to antibiotic is “Resistant/Sensitive”.

Q: `CCC[C@@H]1C[C@@H](C(=O)N[C@@H]([C@H]2O[C@H](SC)[C@H](O)[C@@H](O)[C@H]2O)[C@@H](C)O)N(C)C1` [Lincomycin] was tested. Which “Diameter of clear area” value did it give?
A: Its value is 16.7 mm.

Q: And the Sensitivity to antibiotic?
A: Its Sensitivity to antibiotic is “Resistant/Sensitive”.

Q: Which results are given for `COc1cccc(OC)c1C(=O)N[C@@H]1C(=O)N2[C@@H]1SC(C)(C)[C@@H]2C(=O)O` [Meticillin]?
A: Diameter of clear area: 23.3 mm; Sensitivity to antibiotic: Sensitive

Q: `CN(C)[C@@H]1C(=O)C(C(N)=O)=C(O)[C@@]2(O)C(=O)C3=C(O)c4c(O)cccc4[C@@](C)(O)[C@H]3C[C@@H]12` [Tetracyclin] was tested. Which “Diameter of clear area” value did it give?
A: The value was 19.8 mm.

Q: And the Sensitivity to antibiotic?
A: The Sensitivity to antibiotic was “Sensitive”.

Q: What does the source list for `CN[C@H](CC(C)C)C(=O)N[C@H]1C(=O)N[C@@H](CC(N)=O)C(=O)N[C@H]2C(=O)N[C@H]3C(=O)N[C@H](C(=O)N[C@H](C(=O)O)c4cc(O)cc(O)c4-c4cc3ccc4O)[C@H](O)c3ccc(c(Cl)c3)Oc3cc2cc(c3O[C@@H]2O[C@H](CO)[C@@H](O)[C@H](O)[C@H]2O[C@H]2C[C@](C)(N)[C@H](O)[C@H](C)O2)Oc2ccc(cc2Cl)[C@H]1O` [Vancomycin]?
A: Diameter of clear area: 11.9 mm; Sensitivity to antibiotic: Sensitive

Q: Amox. Clav. ac was tested. Which “Diameter of clear area” value did it give?
A: The value was 28.0 mm.

Q: What about the Sensitivity to antibiotic of the same molecule?
A: The Sensitivity to antibiotic was “Sensitive”.

Q: For Gentamicin, which “Diameter of clear area” value is on record?
A: Its value is 16.6 mm.

Q: What about the Sensitivity to antibiotic of the same molecule?
A: Its Sensitivity to antibiotic is “Sensitive”.

Q: Which “Diameter of clear area” value does the source give for Neomycin here?
A: The value was 14.7 mm.

Q: And the Sensitivity to antibiotic?
A: The Sensitivity to antibiotic was “Resistant/Sensitive”.

Q: For Penicillin, which “Diameter of clear area” value is on record?
A: Its value is 9.0 mm.

Q: And the Sensitivity to antibiotic?
A: Its Sensitivity to antibiotic is “Resistant”.

Q: Which results are given for Sulpha/trimethoprim?
A: Diameter of clear area: 18.8 mm; Sensitivity to antibiotic: Sensitive
